Source: the NIST ThermoML archive (doi:10.1016/j.fluid.2004.09.013)

Conditions: for mass density: Fluid (supercritical or subcritical phases), Vibrating tube method; for vapor or sublimation pressure: Liquid

C=CCC [1-butene]
Conditions | mass density [kg/m3]
273.24 K, 612 kPa | 619.16
273.24 K, 4987 kPa | 624.98
273.24 K, 9990 kPa | 631.06
273.24 K, 15004 kPa | 636.64
273.24 K, 20005 kPa | 641.81
273.24 K, 24989 kPa | 646.61
273.24 K, 29996 kPa | 651.13
273.24 K, 34991 kPa | 655.38
273.24 K, 39998 kPa | 659.41
278.25 K, 610 kPa | 613.23
278.25 K, 4982 kPa | 619.35
278.25 K, 9991 kPa | 625.73
278.25 K, 14984 kPa | 631.55
278.25 K, 20001 kPa | 636.92
278.25 K, 24985 kPa | 641.91
278.25 K, 30007 kPa | 646.61
278.25 K, 34997 kPa | 650.99
278.25 K, 39995 kPa | 655.14
283.26 K, 610 kPa | 607.22
283.26 K, 4984 kPa | 613.69
283.26 K, 9995 kPa | 620.39
283.26 K, 15000 kPa | 626.47
283.26 K, 19989 kPa | 632.05
283.26 K, 24987 kPa | 637.22
283.26 K, 30013 kPa | 642.08
283.26 K, 35003 kPa | 646.62
283.26 K, 39990 kPa | 650.88
288.27 K, 611 kPa | 601.14
288.27 K, 14998 kPa | 621.36
288.28 K, 4990 kPa | 607.98
288.28 K, 9997 kPa | 615.01
288.28 K, 19990 kPa | 627.16
288.28 K, 24993 kPa | 632.55
288.28 K, 30009 kPa | 637.56
288.28 K, 35002 kPa | 642.25
288.28 K, 39995 kPa | 646.65
293.29 K, 611 kPa | 594.95
293.29 K, 4994 kPa | 602.2
293.29 K, 9995 kPa | 609.58
293.29 K, 14989 kPa | 616.2
293.29 K, 19984 kPa | 622.26
293.29 K, 24990 kPa | 627.84
293.29 K, 29991 kPa | 633.02
293.29 K, 34994 kPa | 637.87
293.29 K, 39994 kPa | 642.42
298.3 K, 613 kPa | 588.66
298.3 K, 4990 kPa | 596.33
298.3 K, 10001 kPa | 604.11
298.3 K, 14994 kPa | 611.04
298.3 K, 19995 kPa | 617.35
298.3 K, 24993 kPa | 623.14
298.3 K, 30005 kPa | 628.51
298.3 K, 35015 kPa | 633.51
298.3 K, 40003 kPa | 638.19
303.31 K, 661 kPa | 582.33
303.31 K, 9983 kPa | 598.56
303.31 K, 15001 kPa | 605.85
303.31 K, 19987 kPa | 612.4
303.31 K, 24994 kPa | 618.42
303.31 K, 30008 kPa | 623.99
303.31 K, 35004 kPa | 629.15
303.32 K, 4995 kPa | 590.39
303.32 K, 40006 kPa | 633.97
308.32 K, 4985 kPa | 584.34
308.32 K, 9991 kPa | 592.99
308.32 K, 14996 kPa | 600.61
308.32 K, 19992 kPa | 607.46
308.32 K, 25004 kPa | 613.71
308.32 K, 30007 kPa | 619.45
308.32 K, 34999 kPa | 624.79
308.32 K, 40000 kPa | 629.76
308.33 K, 713 kPa | 575.87
313.2 K, 947 kPa | 569.83
313.2 K, 4992 kPa | 578.34
313.2 K, 9990 kPa | 587.43
313.2 K, 14997 kPa | 595.4
313.2 K, 19994 kPa | 602.53
313.2 K, 24994 kPa | 609.01
313.2 K, 30011 kPa | 614.95
313.2 K, 35009 kPa | 620.44
313.2 K, 39997 kPa | 625.59
318.21 K, 1037 kPa | 563.26
318.21 K, 5017 kPa | 572.17
318.21 K, 10015 kPa | 581.78
318.21 K, 15007 kPa | 590.11
318.21 K, 20018 kPa | 597.56
318.21 K, 25018 kPa | 604.28
318.21 K, 30002 kPa | 610.4
318.21 K, 35001 kPa | 616.07
318.21 K, 39996 kPa | 621.35
323.21 K, 1110 kPa | 556.48
323.21 K, 9982 kPa | 575.95
323.21 K, 14984 kPa | 584.73
323.21 K, 25001 kPa | 599.51
323.21 K, 30001 kPa | 605.88
323.21 K, 34994 kPa | 611.74
323.21 K, 40004 kPa | 617.19
323.22 K, 5006 kPa | 565.82
323.22 K, 19997 kPa | 592.52
328.22 K, 1187 kPa | 549.53
328.22 K, 4989 kPa | 559.32
328.22 K, 9998 kPa | 570.14
328.22 K, 14996 kPa | 579.36
328.22 K, 19992 kPa | 587.47
328.22 K, 25011 kPa | 594.75
328.22 K, 30003 kPa | 601.33
328.22 K, 34986 kPa | 607.37
328.22 K, 40001 kPa | 613
333.22 K, 1276 kPa | 542.42
333.22 K, 4994 kPa | 552.72
333.22 K, 10001 kPa | 564.22
333.22 K, 14993 kPa | 573.92
333.22 K, 20000 kPa | 582.4
333.22 K, 24986 kPa | 589.92
333.22 K, 29987 kPa | 596.76
333.22 K, 35007 kPa | 603.04
333.22 K, 40005 kPa | 608.82
338.22 K, 1372 kPa | 535.11
338.22 K, 4996 kPa | 545.96
338.22 K, 9985 kPa | 558.18
338.22 K, 14991 kPa | 568.42
338.22 K, 19988 kPa | 577.27
338.22 K, 25002 kPa | 585.14
338.22 K, 29995 kPa | 592.2
338.22 K, 34993 kPa | 598.67
338.22 K, 39988 kPa | 604.63
343.22 K, 1477 kPa | 527.59
343.22 K, 4989 kPa | 538.99
343.22 K, 9987 kPa | 552.06
343.22 K, 14985 kPa | 562.84
343.22 K, 19995 kPa | 572.12
343.22 K, 24993 kPa | 580.29
343.22 K, 29995 kPa | 587.63
343.22 K, 34993 kPa | 594.3
343.22 K, 39996 kPa | 600.44
348.22 K, 9989 kPa | 545.85
348.22 K, 24986 kPa | 575.42
348.23 K, 1592 kPa | 519.85
348.23 K, 4984 kPa | 531.84
348.23 K, 14988 kPa | 557.22
348.23 K, 20000 kPa | 566.94
348.23 K, 29995 kPa | 583.02
348.23 K, 35000 kPa | 589.94
348.23 K, 39996 kPa | 596.25
353.23 K, 1715 kPa | 511.85
353.23 K, 4999 kPa | 524.53
353.23 K, 9991 kPa | 539.5
353.23 K, 14992 kPa | 551.53
353.23 K, 19991 kPa | 561.68
353.23 K, 24984 kPa | 570.52
353.23 K, 30003 kPa | 578.41
353.23 K, 34996 kPa | 585.54
353.23 K, 40004 kPa | 592.05
358.23 K, 1846 kPa | 503.54
358.23 K, 4995 kPa | 516.91
358.23 K, 9989 kPa | 533.03
358.23 K, 14984 kPa | 545.76
358.23 K, 19997 kPa | 556.43
358.23 K, 25002 kPa | 565.63
358.23 K, 30007 kPa | 573.81
358.23 K, 34991 kPa | 581.14
358.23 K, 39997 kPa | 587.85
363.23 K, 1991 kPa | 494.93
363.23 K, 4996 kPa | 509.02
363.23 K, 9987 kPa | 526.43
363.23 K, 14995 kPa | 539.91
363.23 K, 19993 kPa | 551.05
363.23 K, 24987 kPa | 560.63
363.23 K, 29994 kPa | 569.1
363.23 K, 35013 kPa | 576.7
363.23 K, 39993 kPa | 583.59
368.23 K, 2145 kPa | 485.95
368.23 K, 4994 kPa | 500.81
368.23 K, 10001 kPa | 519.71
368.23 K, 15000 kPa | 534.01
368.23 K, 19992 kPa | 545.69
368.23 K, 24989 kPa | 555.66
368.23 K, 29994 kPa | 564.43
368.23 K, 34993 kPa | 572.27
368.23 K, 39995 kPa | 579.38
373.23 K, 2313 kPa | 476.57
373.23 K, 10000 kPa | 512.83
373.23 K, 19991 kPa | 540.27
373.23 K, 24984 kPa | 550.66
373.23 K, 30002 kPa | 559.76
373.23 K, 35005 kPa | 567.88
373.23 K, 39997 kPa | 575.19
373.24 K, 5000 kPa | 492.29
373.24 K, 15001 kPa | 528.02
378.23 K, 4992 kPa | 483.29
378.23 K, 40004 kPa | 571.03
378.24 K, 2492 kPa | 466.71
378.24 K, 9989 kPa | 505.75
378.24 K, 14998 kPa | 521.94
378.24 K, 20001 kPa | 534.83
378.24 K, 24999 kPa | 545.69
378.24 K, 30000 kPa | 555.11
378.24 K, 35012 kPa | 563.49
383.24 K, 2679 kPa | 456.23
383.24 K, 5001 kPa | 473.89
383.24 K, 9994 kPa | 498.55
383.24 K, 14998 kPa | 515.79
383.24 K, 19999 kPa | 529.35
383.24 K, 24986 kPa | 540.63
383.24 K, 29986 kPa | 550.4
383.24 K, 34993 kPa | 559.06
383.24 K, 39986 kPa | 566.81
388.24 K, 2883 kPa | 445.15
388.24 K, 4993 kPa | 463.82
388.24 K, 9989 kPa | 491.12
388.24 K, 14987 kPa | 509.52
388.24 K, 20000 kPa | 523.81
388.24 K, 24990 kPa | 535.58
388.24 K, 29995 kPa | 545.72

Conditions | vapor or sublimation pressure [kPa]
289.42 K | 225.85
294 K | 260.86
301.73 K | 329.59
306.48 K | 378.14
315.34 K | 484.39
321.69 K | 572.17
329.51 K | 695.71
337.04 K | 833.9
337.68 K | 845.55
345.48 K | 1009.7
353.71 K | 1207.9
358.53 K | 1337.5
361.4 K | 1416.5
366.99 K | 1590.4
367.1 K | 1594.8
379.44 K | 2014.2
386.99 K | 2310.4
